Data set [1] concerns the target T1, human mGluR4 transiently over-expressed in HEK-293 cells (Homo sapiens, UniProt Q14833).
T1 construct: expressed in transfected cells; host or cells: HEK-293 cells, transient co-transfection by electroporation
The data set is described as follows: Human mGluR4 positive allosteric modulator evaluation using Ca++ functional assay. The format is cell-based. The conditions noted are these: HEK-293 cells co-transfected with hmGluR4 and chimeric G protein; EC10 glutamate; intracellular calcium (Fluo4AM); read-out: mean EC50 of agonist/positive allosteric modulator activity on mGluR4. In a few lines: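 Fluo4AM-loaded HEK-293 cells expressing hmGluR4 plus a chimeric G protein were read for intracellular Ca2+ (ex 485, em 525 nm). PAM effect measured as potentiation of EC10 glutamate after a 60 s compound-alone agonist read; EC50 from variable-slope sigmoidal fits of 6–9 doses, duplicates, twice.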

Some results are limits rather than exact numbers.

T1 sequence (Q14833 33-912): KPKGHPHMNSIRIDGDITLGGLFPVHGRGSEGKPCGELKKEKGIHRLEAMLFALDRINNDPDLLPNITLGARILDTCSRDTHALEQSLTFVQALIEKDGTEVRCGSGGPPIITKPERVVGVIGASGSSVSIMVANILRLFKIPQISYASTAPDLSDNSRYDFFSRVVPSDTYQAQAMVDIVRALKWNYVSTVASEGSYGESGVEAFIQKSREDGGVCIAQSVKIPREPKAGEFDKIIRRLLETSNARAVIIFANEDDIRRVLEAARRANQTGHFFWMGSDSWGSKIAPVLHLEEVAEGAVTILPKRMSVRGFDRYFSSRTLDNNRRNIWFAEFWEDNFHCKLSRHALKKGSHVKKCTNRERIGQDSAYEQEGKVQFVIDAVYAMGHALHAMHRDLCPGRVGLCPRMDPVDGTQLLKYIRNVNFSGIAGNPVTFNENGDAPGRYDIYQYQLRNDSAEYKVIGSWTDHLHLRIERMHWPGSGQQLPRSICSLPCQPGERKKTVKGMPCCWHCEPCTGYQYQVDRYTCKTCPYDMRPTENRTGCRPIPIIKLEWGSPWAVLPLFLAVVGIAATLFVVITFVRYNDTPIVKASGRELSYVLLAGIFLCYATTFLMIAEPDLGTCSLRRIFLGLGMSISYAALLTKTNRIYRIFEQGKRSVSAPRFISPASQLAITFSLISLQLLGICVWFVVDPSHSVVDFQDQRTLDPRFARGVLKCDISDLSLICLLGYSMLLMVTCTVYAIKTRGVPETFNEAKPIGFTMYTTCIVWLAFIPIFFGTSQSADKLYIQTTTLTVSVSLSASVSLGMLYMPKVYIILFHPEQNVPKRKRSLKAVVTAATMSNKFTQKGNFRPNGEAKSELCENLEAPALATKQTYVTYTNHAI

As to `ON=c1cc(-c2cc3cccn3cn2)oc2cccc(C(F)(F)F)c12` [Example 153, 2-Pyrrolo[1,2-c]pyrimidin-3-yl-5-trifluoromethyl-chromen-4-one oxime], the melting point fell in the range of 255 to 257 °C. Further, in data set [1], the EC50 was under 5000 nM.

`Cl.ON=c1cc(-c2cc3cccn3cn2)oc2ccc(OCCCc3ccncc3)cc12` [Example 159, 6-(3-Pyridin-4-yl-propoxy)-2-pyrrolo[1,2-c]pyrimidin-3-yl-chromen-4-one oxime, hydrochloride] registered a melting point of 210 to 215 °C. Besides, in data set [1], the EC50 was under 1000 nM.

In the case of `Cl.ON=c1cc(-c2cn3cccc3cn2)oc2ccc(OCCn3ccnc3)cc12` [Example 125, 6-(2-Imidazol-1-yl-ethoxy)-2-pyrrolo[1,2-a]pyrazin-3-yl-chromen-4-one oxime, hydrochloride], the melting point was 238 to 240 °C. Moreover, the EC50 in data set [1] is under 1000 nM.

`CN(C(=O)COc1ccc2oc(-c3cc4cccn4cn3)cc(=NO)c2c1)c1ccc(F)cc1` [Example 151, N-(4-Fluoro-phenyl)-2-{4-hydroxyimino-2-pyrrolo[1,2-c]pyrimidin-3-yl-4H-chromen-6-yloxy}-N-methyl-acetamide] registered a melting point of 268 to 272 °C. In addition, the EC50 in data set [1] is under 5000 nM.

Turning to `Cl.ON=c1cc(-c2cn3cccc3cn2)oc2ccc(OCCN3CCOCC3)cc12` [Example 123, 6-(2-Morpholin-4-yl-ethoxy)-2-(8aH-pyrrolo[1,2-a]pyrazin-3-yl)-chromen-4-one oxime, hydrochloride], the melting point is > 250 °C (dec.). In addition, the EC50 in data set [1] is under 1000 nM.

In turn, `CN(C)c1ccc2oc(-c3cc4ccccc4cn3)cc(=NO)c2c1` [Example 39, 6-dimethylamino-2-isoquinolin-3-yl-chromen-4-one oxime] yielded a melting point of 223 to 225 °C. In addition, the EC50 in data set [1] is under 5000 nM.

With `ON=c1cc(-c2cc3cc(Br)cn3cn2)oc2ccccc12` [Example 65, 2-(6-bromo-Pyrrolo[1,2-c]pyrimidin-3-yl)-chromen-4-one oxime], the melting point lay within 244 to 245 °C. Further, the EC50 in data set [1] is under 5000 nM.

`COc1ccc2oc(-c3cc4ccccc4cn3)cc(=NO)c2c1` (mixture of isomers) [Example 42, 2-isoquinolin-3-yl-6-methoxy-chromen-4-one oxime] showed a melting point of 250 to 255 °C. Besides, the EC50 in data set [1] is under 5000 nM.

Take `Cl.ON=c1cc(-c2cc3cccn3cn2)oc2cccc(OCCN3CCOCC3)c12` [Example 156, 5-(2-Morpholin-4-yl-ethoxy)-2-pyrrolo[1,2-c]pyrimidin-3-yl-chromen-4-one oxime, hydrochloride]: the melting point fell in the range of 200 to 205 °C. In addition, in data set [1], the EC50 was under 1000 nM.

As for `Cn1ccc2cc(-c3cc(=NO)c4ccccc4o3)ncc21` [Example 77, 2-(1-Methyl-1H-pyrrolo[2,3-c]pyridin-5-yl)-chromen-4-one oxime], the melting point is 270 to 275 °C (dec.). For the same compound, the EC50 in data set [1] is under 5000 nM.

Regarding `COCCOc1ccc2oc(-c3cc4ccccc4cn3)cc(=NO)c2c1` (mixture of isomers) [Example 43, 2-isoquinolin-3-yl-6-(2-methoxy-ethoxy)-chromen-4-one oxime], the melting point was in the range of 198 to 204 °C. In addition, the EC50 in data set [1] is under 1000 nM.

In the case of `Cl.ON=c1cc(-c2cc3sccc3cn2)oc2ccc(OCCN3CCC(F)(F)C3)cc12` [Example 133, 6-[2-(3,3-Difluoro-pyrrolidin-1-yl)-ethoxy]-2-thieno[3,2-c]pyridin-6-yl-chromen-4-one oxime, hydrochloride], the melting point is 226 to 229 °C. The EC50 in data set [1] was under 1000 nM.

As for `ON=c1cc(-c2cc3cccn3cn2)oc2ccc(OCCc3cccc(C(F)(F)F)c3)cc12` [Example 141, 2-Pyrrolo[1,2-c]pyrimidin-3-yl-6-[2-(3-trifluoromethyl-phenyl)-ethoxy]-chromen-4-one oxime], the melting point was in the range of 217 to 218 °C. Also, in data set [1], the EC50 was under 1000 nM.

In turn, `Cl.ON=c1cc(-c2cc3sccc3cn2)oc2ccc(OCCN3CCC(F)(F)CC3)cc12` [Example 128, 6-[2-(4,4-Difluoro-piperidin-1-yl)-ethoxy]-2-thieno[3,2-c]pyridin-6-yl-chromen-4-one oxime, hydrochloride] displayed a melting point of 225 to 230 °C. Further, the EC50 in data set [1] was under 1000 nM.

Consider `COCCCc1ccc2oc(-c3cc4cccn4cn3)cc(=NO)c2c1` (mixture of isomers) [Example 83, 6-(3-Methoxy-propyl)-2-pyrrolo[1,2-c]pyrimidin-3-yl-chromen-4-one oxime], for which the melting point was in the range of 172 to 173 °C. Besides, the EC50 in data set [1] is under 1000 nM.

For `Cl.ON=c1cc(-c2cc3cccn3cn2)oc2ccc(OCCCN3CCOCC3)cc12` [Example 101, 6-(3-morpholin-4-yl-propoxy)-2-pyrrolo[1,2-c]pyrimidin-3-yl-chromen-4-one oxime, hydrochloride], the melting point is > 220 °C (dec.). For the same compound, in data set [1], the EC50 is under 1000 nM.

With `CN1CCN(CCOc2ccc3oc(-c4cc5cccn5cn4)cc(=NO)c3c2)CC1.Cl.Cl` [Example 93, 6-[2-(4-methyl-piperazin-1-yl)-ethoxy]-2-pyrrolo[1,2-c]pyrimidin-3-yl-chromen-4-one oxime, dihydrochloride], the melting point is > 230 °C (dec.). The EC50 in data set [1] was under 5000 nM.

`Cl.ON=c1cc(-c2cc3cccn3cn2)oc2ccc(OCCN3CCC(O)C3)cc12` (centres unmarked) [Example 98, 6-[2-(3-hydroxy-pyrrolidin-1-yl)-ethoxy]-2-pyrrolo[1,2-c]pyrimidin-3-yl-chromen-4-one oxime, hydrochloride]: the melting point is > 230 °C (dec.). Further, the EC50 in data set [1] is under 1000 nM.

For `ON=c1cc(-c2cn3cccc3cn2)oc2ccccc12` [Example 91, 2-Pyrrolo[1,2-a]pyrazin-3-yl-chromen-4-one oxime], the melting point was over 276 °C. Further, in data set [1], the EC50 is under 1000 nM.

For `Cl.Cl.ON=c1cc(-c2cc3cccn3cn2)oc2ccc(OCCN3CCC(N4CCCCC4)CC3)cc12` [Example 116, 6-(2-[1,4′]bipiperidinyl-1′-yl-ethoxy)-2-pyrrolo[1,2-c]pyrimidin-3-yl-chromen-4-one oxime, dihydrochloride], the melting point was > 235 °C (dec.). Also, the EC50 in data set [1] is under 1000 nM.

On to `ON=c1cc(-c2cc3ccccc3cn2)oc2cc(C#Cc3ccccn3)ccc12` [Example 24, 2-isoquinolin-3-yl-7-(pyridin-2-yl-ethynyl)-chromen-4-one oxime], for which the melting point was 248 to 251 °C. In addition, the EC50 in data set [1] is under 5000 nM.

Take `COC[C@@H]1CCCN1CCOc1ccc2oc(-c3cc4cccn4cn3)cc(=NO)c2c1.Cl` [Example 96, 6-[2-((S)-2-methoxymethylpyrrolidin-1-yl)-ethoxy]-2-pyrrolo[1,2-c]pyrimidin-3-yl-chromen-4-one oxime, hydrochloride]: the melting point was > 225 °C (dec.). In addition, the EC50 in data set [1] was under 1000 nM.

For the compound `Cl.ON=c1cc(-c2cc3cccn3cn2)oc2ccc(OCCN3CCCC(F)(F)C3)cc12` [Example 114, 6-[2-(3,3-difluoro-piperidin-1-yl)-ethoxy]-2-pyrrolo[1,2-c]pyrimidin-3-yl-chromen-4-one oxime, hydrochloride], the melting point was 190 to 195 °C. The EC50 in data set [1] was under 1000 nM.

Consider `ON=c1cc(-c2cc3ccccc3cn2)oc2ccccc12` (mixture of isomers) [Example 1, 2-isoquinolin-3-yl-chromen-4-one oxime], for which the melting point lay within 247 to 249 °C. Further, in data set [1], the EC50 was under 1000 nM.

`Cl.ON=c1cc(-c2cc3cccn3cn2)oc2ccc(OCCN3CCCCC3)cc12` [Example 88, 6-(2-Piperidin-1-yl-ethoxy)-2-pyrrolo[1,2-c]pyrimidin-3-yl-chromen-4-one oxime, hydrochloride]: the melting point is > 255 °C (dec.). In data set [1], the EC50 is under 5000 nM.

As for `COc1ccc2c(=NO)cc(-c3cc4ccccc4cn3)oc2c1` (mixture of isomers) [Example 56, 2-isoquinolin-3-yl-7-methoxy-chromen-4-one oxime], the melting point was 246 to 248 °C. Moreover, the EC50 in data set [1] is under 5000 nM.

Turning to `ON=c1cc(-c2cn3cccc3cn2)oc2ccc(OCCc3ccc(F)cc3)cc12` [Example 126, 6-[2-(4-Fluoro-phenyl)-ethoxy]-2-pyrrolo[1,2-a]pyrazin-3-yl-chromen-4-one oxime], the melting point lay within 248 to 250 °C. Besides, the EC50 in data set [1] was under 1000 nM.

For the compound `Cc1ccc2cnc(-c3cc(=NO)c4ccccc4o3)cc2c1` (mixture of isomers) [Example 15, 2-(6-methyl-isoquinolin-3-yl)-chromen-4-one oxime], the melting point lay in the range of 245 to 247 °C. Moreover, the EC50 in data set [1] is under 5000 nM.

On to `Cl.ON=c1cc(-c2cn3cccc3cn2)oc2ccc(OCCN3CCC(F)(F)CC3)cc12` [Example 124, 6-[2-(4,4-Difluoro-piperidin-1-yl)-ethoxy]-2-pyrrolo[1,2-a]pyrazin-3-yl-chromen-4-one oxime, hydrochloride], for which the melting point was in the range of 225 to 230 °C. Besides, in data set [1], the EC50 is under 1000 nM.

On to `COc1cccc(C#Cc2ccc3c(=NO)cc(-c4cc5ccccc5cn4)oc3c2)c1` (mixture of isomers) [Example 28, 2-isoquinolin-3-yl-7-(3-methoxyphenyl)ethynyl-chromen-4-one oxime], for which the melting point lay within 248 to 251 °C. Besides, the EC50 in data set [1] was under 1000 nM.

`COCCOCC#Cc1ccc2c(=NO)cc(-c3cc4ccccc4cn3)oc2c1` (mixture of isomers) [Example 54, 2-Isoquinolin-3-yl-7-[3-(2-methoxy-ethoxy)-prop-1-ynyl]-chromen-4-one oxime] yielded a melting point of 158 to 160 °C. Further, the EC50 in data set [1] is under 5000 nM.
